Results: ChEMBL document CHEMBL1201862, “PubChem BioAssay data set” (2004)
Activity calls are given as the source filed them.

How the values were obtained:
[1] = target: ADP-ribosylation factor GTPase-activating protein 1 (Rattus norvegicus, UniProt Q62848); test: Fluorescence polarization-based biochemical high throughput dose response screening assay to identify inhibitors of ADP-ribosylation factor GTPase activating protein 1 (ARFGAP1).; type: functional
[2] = HEp-2 cell cytotoxicity, dose response, cytotoxicity control for RSV inhibitor project, HTS (AID 2410); type: functional; conditions: human respiratory syncytial virus
[3] = HIV-1 Env-mediated cell fusion inhibitors, dose response, CCR5-tropic Env (AID 2279); type: functional
[4] = target: Induced myeloid leukemia cell differentiation protein Mcl-1 (Homo sapiens, UniProt Q07820); type: functional
[5] = Luminescence Cell-Based Dose Retest to Confirm Inhibitors of Cancer Stem Cells. [Related pubchem assays (depositor defined):AID2717, AID2721]; type: functional; conditions: Homo sapiens
[6] = target: DNA (cytosine-5)-methyltransferase 1 (Homo sapiens, UniProt P26358); test: DNMT1 methyltransferase inhibitors, confirmation, biochemical, fluorescent molecular beacon (AID 602386); type: functional
[7] = target: T1, Mitochondrial peptide methionine sulfoxide reductase (Bos taurus, UniProt P54149); type: functional;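 further: absorbance read-out, biochemical high-throughput dose-response screen for MsrA inhibitors, confirmatory; recombinant bovine MsrA coupled to E. coli TrxB with NADPH and selenocystamine; potency is for inhibitors of MsrA activity on DMSO substrate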
T1 sequence (P54149 whole entry): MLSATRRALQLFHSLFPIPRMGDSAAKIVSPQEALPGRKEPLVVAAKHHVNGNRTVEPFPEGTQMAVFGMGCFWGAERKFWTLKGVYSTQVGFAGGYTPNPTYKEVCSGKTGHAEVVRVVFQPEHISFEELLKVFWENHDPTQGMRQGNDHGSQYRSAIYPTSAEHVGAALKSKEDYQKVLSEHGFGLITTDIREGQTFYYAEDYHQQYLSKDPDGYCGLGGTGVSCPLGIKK

[8] = target: T2, Sentrin-specific protease 8 (Homo sapiens, UniProt Q96LD8); type: functional
T2 sequence (Q96LD8 whole entry): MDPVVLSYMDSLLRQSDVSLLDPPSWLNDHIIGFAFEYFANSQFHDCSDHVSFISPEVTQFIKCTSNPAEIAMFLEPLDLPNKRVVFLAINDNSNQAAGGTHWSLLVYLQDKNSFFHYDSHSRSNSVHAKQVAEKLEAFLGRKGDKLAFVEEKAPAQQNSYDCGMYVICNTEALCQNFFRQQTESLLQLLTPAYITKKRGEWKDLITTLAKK

[9] = target: T2, Sentrin-specific protease 8; type: functional; remark: listed apart in the source
[10] = miR-122 activators in hepatoma reporter cells, dose response, cell-based, Huh7 psiCHECK-miR122, Renilla luciferase, cherry-picked (AID 651956); type: functional;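 further: huh7 hepatoma cells stably carrying a psiCHECK-2 miR-122 sensor plasmid; renilla luciferase signal reporting endogenous miR-122 activity after 48 h compound exposure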
[11] = HEK293T cytotoxicity, dose response, cytotoxicity control for miR-122 modulator project, cell-based, inhibitor set, cherry-pick, set 2 (AID 720697); type: functional
[12] = target: Hepatocyte nuclear factor 4-alpha (Homo sapiens, UniProt P41235); type: functional, cell-based;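 further: biochemical luminescence-based dose-response counterscreen measuring inhibition of HNF4 dimerization, run alongside a screen for blockers of ABHD5–perilipin-5 interaction; split luciferase complementation of HNF4 fusion proteins in cell lysate measuring dimerization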
[13] = inhibitors of intracellular T. cruzi replication, confirmation, NIH3T3 host cells, beta-gal luminescence (AID 2044); type: functional, cell-based;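 further: intracellular parasites grown in NIH/3T3 mouse fibroblasts as host cells; luminescent beta-galactosidase reporter signal from transgenic T. cruzi replicating inside host cells; inhibitors lower the luminescence signal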
[14] = cytotoxicity toward NIH3T3 fibroblasts, dose response, counter-screen, cell-based, ATP luminescence, mouse fibroblasts (AID 2010); type: functional;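 further: cells exposed to compound for about 90 hours before reading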
Protein Wnt-3a = Protein Wnt-3a (Mus musculus, UniProt P27467); test: Wnt3a-driven reporter signaling inhibition, dose response, selectivity assay for Gli-SUFU antagonist project, Wnt-LIGHT cells, luminescence (AID 651570); type: functional; conditions: read-out: IC50_Mean;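 further: Wnt-LIGHT reporter cells stimulated with conditioned medium from Wnt3a-producing cells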
[15] = target: T3, High affinity choline transporter 1 (Homo sapiens, UniProt Q9GZV3); test: CHT inhibitors, dose response, cell-based, 5-point CRC, membrane potential dye (AID 504840); type: functional
T3 sequence (Q9GZV3 whole entry): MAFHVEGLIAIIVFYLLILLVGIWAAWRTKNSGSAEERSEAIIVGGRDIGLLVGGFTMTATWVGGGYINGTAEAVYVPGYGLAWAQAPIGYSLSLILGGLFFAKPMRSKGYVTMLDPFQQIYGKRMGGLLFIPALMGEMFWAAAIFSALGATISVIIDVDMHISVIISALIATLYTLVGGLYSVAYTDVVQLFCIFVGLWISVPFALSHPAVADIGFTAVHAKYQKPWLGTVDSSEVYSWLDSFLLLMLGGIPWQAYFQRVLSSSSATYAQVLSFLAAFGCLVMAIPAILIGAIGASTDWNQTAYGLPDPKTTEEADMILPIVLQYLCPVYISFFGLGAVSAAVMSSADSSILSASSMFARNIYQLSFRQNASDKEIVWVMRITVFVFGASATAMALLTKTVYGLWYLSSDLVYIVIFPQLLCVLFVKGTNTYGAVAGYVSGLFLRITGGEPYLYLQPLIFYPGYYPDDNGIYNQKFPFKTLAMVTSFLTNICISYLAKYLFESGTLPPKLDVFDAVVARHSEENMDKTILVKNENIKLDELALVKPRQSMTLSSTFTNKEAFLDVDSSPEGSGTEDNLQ

[16] = target: T3, High affinity choline transporter 1; test: CHT inhibitors, dose response, cell-based, 10-point CRC, membrane potential dye (AID 588401); type: functional;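 further: membrane potential dye fluorescence of choline-evoked depolarization via CHT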
[17] = target: T4, RNA-binding protein pos-1 (Caenorhabditis elegans, UniProt G5EF15); test: inhibitors of POS-1/mex-3 RNA binding, dose response, biochemical, fluorescence polarization (AID 1964);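 further: purified POS-1 fused to maltose binding protein made in E. coli; potency of compounds blocking POS-1 binding to fluorescent RNA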
T4 sequence (G5EF15 whole entry): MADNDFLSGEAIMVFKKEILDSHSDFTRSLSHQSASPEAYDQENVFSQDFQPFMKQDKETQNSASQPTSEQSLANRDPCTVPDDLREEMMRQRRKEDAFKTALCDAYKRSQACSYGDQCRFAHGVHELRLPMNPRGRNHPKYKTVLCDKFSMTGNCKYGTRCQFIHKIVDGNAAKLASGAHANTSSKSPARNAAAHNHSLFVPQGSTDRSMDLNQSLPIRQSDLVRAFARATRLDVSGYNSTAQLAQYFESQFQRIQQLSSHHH

[18] = target: T5, Zinc finger protein mex-5 (Caenorhabditis elegans, UniProt Q9XUB2); test: MEX-5/TCR-2 RNA interaction inhibitors, dose response, biochemical, C. elegans, fluorescence polarization (AID 1960)
T5 sequence (Q9XUB2 whole entry): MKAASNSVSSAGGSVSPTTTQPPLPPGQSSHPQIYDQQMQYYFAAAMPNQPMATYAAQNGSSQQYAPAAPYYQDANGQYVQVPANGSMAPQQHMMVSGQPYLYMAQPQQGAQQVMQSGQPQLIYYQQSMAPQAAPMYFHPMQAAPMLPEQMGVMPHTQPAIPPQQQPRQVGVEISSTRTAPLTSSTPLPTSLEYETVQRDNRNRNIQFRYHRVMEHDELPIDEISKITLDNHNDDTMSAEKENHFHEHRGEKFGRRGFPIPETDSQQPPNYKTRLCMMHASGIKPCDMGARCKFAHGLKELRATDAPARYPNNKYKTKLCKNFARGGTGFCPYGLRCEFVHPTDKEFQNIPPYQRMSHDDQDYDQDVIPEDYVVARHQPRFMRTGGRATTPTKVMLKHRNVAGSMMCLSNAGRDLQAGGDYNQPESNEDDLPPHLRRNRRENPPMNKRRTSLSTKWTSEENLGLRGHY

[19] = target: T6, Carboxy-terminal domain RNA polymerase II polypeptide A small phosphatase 1 (Homo sapiens, UniProt Q9GZU7); test: inhibitors of CTDSP1, concentration-response testing, biochemical assay, absorbance-based, actives from ultra-high-throughput screening (AID 540297); type: functional
T6 sequence (Q9GZU7 whole entry): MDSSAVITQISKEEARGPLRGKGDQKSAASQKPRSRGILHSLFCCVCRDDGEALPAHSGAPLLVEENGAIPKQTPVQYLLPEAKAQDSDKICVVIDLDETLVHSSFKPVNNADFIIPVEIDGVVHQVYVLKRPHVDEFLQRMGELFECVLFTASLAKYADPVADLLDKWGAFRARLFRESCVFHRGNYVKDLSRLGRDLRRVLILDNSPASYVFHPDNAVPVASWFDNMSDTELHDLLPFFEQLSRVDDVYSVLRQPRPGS

[20] = target: T7, Histone-lysine N-methyltransferase NSD2 (Homo sapiens, UniProt O96028); type: biochemical
T7 sequence (O96028 whole entry): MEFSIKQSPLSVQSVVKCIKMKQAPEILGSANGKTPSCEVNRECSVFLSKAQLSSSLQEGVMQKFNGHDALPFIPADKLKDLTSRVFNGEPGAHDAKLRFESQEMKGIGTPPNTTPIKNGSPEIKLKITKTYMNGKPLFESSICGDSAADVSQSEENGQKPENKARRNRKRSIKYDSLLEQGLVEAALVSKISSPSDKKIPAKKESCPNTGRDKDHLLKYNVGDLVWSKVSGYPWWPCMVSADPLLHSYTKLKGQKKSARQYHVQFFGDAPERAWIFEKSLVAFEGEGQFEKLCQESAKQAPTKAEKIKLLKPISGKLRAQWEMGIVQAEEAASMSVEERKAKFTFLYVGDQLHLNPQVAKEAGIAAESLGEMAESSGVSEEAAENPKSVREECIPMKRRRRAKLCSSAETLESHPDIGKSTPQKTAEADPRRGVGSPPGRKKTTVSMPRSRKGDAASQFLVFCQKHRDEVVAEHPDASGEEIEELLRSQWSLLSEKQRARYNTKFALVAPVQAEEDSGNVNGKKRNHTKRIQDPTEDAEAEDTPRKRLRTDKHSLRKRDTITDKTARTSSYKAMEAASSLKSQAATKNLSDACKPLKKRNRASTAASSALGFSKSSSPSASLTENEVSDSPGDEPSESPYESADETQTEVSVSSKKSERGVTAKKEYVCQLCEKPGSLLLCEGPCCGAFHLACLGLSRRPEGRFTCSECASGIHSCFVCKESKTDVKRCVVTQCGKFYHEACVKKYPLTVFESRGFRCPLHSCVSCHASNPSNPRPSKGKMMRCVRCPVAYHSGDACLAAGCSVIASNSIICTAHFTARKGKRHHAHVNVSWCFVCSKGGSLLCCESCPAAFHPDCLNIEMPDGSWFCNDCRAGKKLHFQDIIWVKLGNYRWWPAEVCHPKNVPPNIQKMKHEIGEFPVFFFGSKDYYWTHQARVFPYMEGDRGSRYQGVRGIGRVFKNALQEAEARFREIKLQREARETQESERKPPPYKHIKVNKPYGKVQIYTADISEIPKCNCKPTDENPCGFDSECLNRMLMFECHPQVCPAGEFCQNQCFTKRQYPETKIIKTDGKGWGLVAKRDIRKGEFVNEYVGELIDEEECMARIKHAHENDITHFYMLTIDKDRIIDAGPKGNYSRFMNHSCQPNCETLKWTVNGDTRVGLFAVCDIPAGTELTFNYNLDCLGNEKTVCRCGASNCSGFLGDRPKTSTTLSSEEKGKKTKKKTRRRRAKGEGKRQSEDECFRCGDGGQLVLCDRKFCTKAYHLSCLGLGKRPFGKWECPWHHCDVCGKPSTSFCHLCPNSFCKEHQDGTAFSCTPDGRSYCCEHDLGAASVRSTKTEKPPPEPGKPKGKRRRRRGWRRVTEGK

[21] = NIH-3T3 fibroblast cytotoxicity, dose response, cytotoxicity control, cell-based, fluorescence, Alamar Blue, secondary assay (AID 2327); type: functional;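 further: NIH-3T3 mouse fibroblasts cultured with fluconazole at 8 µg/mL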
[22] = C. albicans growth with fluconazole, confirmation, fluorescence, retest (AID 2467); type: functional, cell-based
[23] = cytotoxicity in HEK-293T cells, dose response, cytotoxicity control for TCR NF-kB inhibitor project, luminescence, T-cell screen hits (AID 489026); type: functional, cell-based;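 further: cells exposed to compound about 14 hours before the viability readout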
[24] = target: Photoreceptor-specific nuclear receptor (Homo sapiens, UniProt Q9Y5X4); type: functional, cell-based;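 further: CHO-S cells with Gal4-NCOR and VP16-NR2E3 two-hybrid luciferase reporter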
Chain of Photoreceptor-specific nuclear receptor (Q9Y5X4 whole entry, the tested form may be a part): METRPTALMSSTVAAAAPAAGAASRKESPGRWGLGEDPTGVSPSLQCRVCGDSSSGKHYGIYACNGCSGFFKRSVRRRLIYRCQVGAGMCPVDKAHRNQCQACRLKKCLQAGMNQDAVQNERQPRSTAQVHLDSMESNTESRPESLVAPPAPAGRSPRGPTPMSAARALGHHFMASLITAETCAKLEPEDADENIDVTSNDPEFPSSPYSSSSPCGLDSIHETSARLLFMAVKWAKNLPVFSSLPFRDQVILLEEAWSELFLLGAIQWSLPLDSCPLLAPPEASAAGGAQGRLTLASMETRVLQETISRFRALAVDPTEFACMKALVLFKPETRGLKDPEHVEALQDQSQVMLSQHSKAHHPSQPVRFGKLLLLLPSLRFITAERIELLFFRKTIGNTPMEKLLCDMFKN

Chain of Protein Wnt-3a (P27467 whole entry): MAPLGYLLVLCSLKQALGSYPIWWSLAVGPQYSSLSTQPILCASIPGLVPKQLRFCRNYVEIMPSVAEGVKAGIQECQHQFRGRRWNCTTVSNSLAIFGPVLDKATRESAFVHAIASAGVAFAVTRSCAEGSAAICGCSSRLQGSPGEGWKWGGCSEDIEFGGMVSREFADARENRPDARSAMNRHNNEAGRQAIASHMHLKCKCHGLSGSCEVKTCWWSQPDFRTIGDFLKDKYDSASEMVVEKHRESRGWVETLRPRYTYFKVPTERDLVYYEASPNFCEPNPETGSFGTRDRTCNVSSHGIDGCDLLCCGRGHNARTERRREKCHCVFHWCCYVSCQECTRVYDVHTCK
Chain of DNA (cytosine-5)-methyltransferase 1 (P26358 whole entry): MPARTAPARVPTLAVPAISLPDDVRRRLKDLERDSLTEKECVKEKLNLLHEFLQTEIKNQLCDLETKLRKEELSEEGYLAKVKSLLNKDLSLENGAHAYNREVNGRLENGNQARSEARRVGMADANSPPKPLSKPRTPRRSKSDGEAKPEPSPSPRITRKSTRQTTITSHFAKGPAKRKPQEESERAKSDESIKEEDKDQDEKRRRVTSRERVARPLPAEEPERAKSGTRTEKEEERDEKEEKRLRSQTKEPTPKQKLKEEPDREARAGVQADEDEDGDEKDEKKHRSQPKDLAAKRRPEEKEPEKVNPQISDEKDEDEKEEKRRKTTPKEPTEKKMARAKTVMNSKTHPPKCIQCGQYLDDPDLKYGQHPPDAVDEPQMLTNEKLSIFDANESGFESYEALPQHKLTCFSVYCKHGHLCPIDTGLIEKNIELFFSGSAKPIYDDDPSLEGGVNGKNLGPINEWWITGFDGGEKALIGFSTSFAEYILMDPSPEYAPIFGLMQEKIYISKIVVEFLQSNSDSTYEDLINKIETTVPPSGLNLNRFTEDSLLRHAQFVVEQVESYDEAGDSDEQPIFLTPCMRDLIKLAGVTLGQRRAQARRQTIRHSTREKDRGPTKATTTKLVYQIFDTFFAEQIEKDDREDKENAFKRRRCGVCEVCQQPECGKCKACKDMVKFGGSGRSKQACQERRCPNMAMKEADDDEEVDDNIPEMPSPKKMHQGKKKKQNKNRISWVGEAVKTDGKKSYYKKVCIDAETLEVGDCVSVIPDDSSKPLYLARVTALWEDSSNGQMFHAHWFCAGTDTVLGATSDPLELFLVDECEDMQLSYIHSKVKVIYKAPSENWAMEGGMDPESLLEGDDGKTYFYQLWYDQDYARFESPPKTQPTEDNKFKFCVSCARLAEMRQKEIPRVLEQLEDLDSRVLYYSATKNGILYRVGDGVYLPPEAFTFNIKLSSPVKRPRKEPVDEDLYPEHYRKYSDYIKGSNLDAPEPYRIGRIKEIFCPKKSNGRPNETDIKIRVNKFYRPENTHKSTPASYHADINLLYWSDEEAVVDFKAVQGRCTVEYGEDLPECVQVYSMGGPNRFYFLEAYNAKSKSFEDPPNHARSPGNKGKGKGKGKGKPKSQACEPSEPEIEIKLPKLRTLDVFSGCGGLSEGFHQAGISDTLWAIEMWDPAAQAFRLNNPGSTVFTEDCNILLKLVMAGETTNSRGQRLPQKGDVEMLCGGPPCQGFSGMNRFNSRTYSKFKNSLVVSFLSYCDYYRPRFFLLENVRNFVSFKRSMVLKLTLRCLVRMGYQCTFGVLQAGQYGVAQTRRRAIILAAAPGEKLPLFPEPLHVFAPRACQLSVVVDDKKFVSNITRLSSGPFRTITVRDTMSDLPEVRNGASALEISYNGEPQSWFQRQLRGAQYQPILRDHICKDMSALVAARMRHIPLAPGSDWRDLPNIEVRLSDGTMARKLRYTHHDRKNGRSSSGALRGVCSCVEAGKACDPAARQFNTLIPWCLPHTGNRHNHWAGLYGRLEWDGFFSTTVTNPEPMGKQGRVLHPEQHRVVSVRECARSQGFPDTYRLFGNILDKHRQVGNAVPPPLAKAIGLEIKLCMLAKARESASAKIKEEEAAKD
Chain of Hepatocyte nuclear factor 4-alpha (P41235 whole entry, the tested form may be a part): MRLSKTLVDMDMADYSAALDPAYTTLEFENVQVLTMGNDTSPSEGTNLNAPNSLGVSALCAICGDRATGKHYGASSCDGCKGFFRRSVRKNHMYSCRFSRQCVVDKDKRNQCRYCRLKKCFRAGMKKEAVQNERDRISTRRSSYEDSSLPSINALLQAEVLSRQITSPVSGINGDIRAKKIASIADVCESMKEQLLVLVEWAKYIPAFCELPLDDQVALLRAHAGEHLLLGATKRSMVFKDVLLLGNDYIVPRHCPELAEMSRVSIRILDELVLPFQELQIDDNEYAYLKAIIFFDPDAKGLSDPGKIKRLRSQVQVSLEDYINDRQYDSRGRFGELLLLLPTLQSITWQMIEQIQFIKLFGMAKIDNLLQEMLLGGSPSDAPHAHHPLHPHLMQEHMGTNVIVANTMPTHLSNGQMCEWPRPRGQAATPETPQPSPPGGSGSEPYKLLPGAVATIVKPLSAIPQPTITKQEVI
Chain of ADP-ribosylation factor GTPase-activating protein 1 (Q62848 whole entry): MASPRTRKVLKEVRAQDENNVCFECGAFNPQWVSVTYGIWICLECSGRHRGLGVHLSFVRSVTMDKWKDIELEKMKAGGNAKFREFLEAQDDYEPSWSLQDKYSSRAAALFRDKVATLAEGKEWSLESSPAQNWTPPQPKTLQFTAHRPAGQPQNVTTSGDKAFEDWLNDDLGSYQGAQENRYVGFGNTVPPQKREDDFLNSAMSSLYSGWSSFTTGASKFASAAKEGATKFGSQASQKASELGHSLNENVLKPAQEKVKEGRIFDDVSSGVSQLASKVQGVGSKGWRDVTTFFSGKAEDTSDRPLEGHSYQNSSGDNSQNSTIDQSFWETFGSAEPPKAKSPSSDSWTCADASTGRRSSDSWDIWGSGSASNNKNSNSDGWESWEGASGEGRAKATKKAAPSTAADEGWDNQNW
Chain of Induced myeloid leukemia cell differentiation protein Mcl-1 (Q07820 whole entry): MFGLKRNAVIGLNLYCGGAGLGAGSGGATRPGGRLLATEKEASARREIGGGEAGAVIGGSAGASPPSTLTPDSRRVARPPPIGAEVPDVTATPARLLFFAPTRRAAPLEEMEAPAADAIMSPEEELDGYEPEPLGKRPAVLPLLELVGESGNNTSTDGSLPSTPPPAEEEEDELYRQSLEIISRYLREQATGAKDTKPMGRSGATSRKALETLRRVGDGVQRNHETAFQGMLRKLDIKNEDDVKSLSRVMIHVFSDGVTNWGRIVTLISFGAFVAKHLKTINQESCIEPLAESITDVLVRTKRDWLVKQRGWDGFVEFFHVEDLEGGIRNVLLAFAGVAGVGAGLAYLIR

COc1ccc(-n2nc3c(N4CCC(C(=O)NCc5ccccc5)CC4)nnc(C)c3c2C)cc1
IC50 [1]: 40.6 µM (inactive)

O=C(O)CCCCCN1C(=O)/C(=C\c2cn(-c3ccccc3)nc2-c2cccs2)SC1=S
CC50 [2]: 12 µM (active)
IC50 [3]: 37.4 µM (active)
IC50 [4]: 2.31 µM (active)
AC50 [5]: 3.54 µM (active)
IC50 [6]: 6.97 µM (active)

COc1ccc(/C=N/n2c(S)nnc2C2CCCCC2)c(OC)c1
IC50 [7]: 155 µM (inactive)

O=C1NC(=O)C(Nc2ccc(Cl)c(Cl)c2)C(=O)N1
IC50 [8]: 8.82 µM (active)
IC50 [9]: 10.9 µM (active)

Cc1cc(C(=O)Nc2ccc3c(c2)C(=O)N(C)[C@@H]2CC[C@H](CC(=O)N[C@@H](C)c4ccccc4)O[C@H]2CO3)no1
AC50 [10]: 57.6 µM (active)
AC50 [11]: 1.12 µM (active)

O=C(Nc1ccc2c(c1)OCCO2)C(c1ccnc2ccccc12)n1c(=O)c(-c2ccco2)nc2ccccc21 (stereo not drawn)
IC50 [12]: 18.9 µM (inactive)

COc1ccccc1CCNC(=O)c1cc(-c2ccncc2)nc2ccc(Br)cc12
EC50 [13]: 0.874 µM (active)
EC50 [14]: > 60 µM (not active)
IC50 (Protein Wnt-3a): 10.9 µM (active)

CC1CCCC(NC(=O)c2ccc(C/N=c3\c(N4CCCC4)c(O)c3=O)cc2)C1C (stereo not drawn)
IC50 [15]: 0.851 µM (active)
IC50 [16]: 0.501 µM (active)

CCOc1cccc(N2C(=O)/C(=C/c3ccco3)C(=O)NC2=S)c1
EC50 [17]: > 300 µM (not active)
EC50 [18]: > 300 µM (not active)
IC50 [19]: 1.6 µM (active)
IC50 [6]: 4.24 µM (active)
AC50 [20]: 1.04 µM (active)

Cc1c(CCOC(=O)C23CC4CC(CC(C)(C4)C2)C3)sc[n+]1Cc1ccccc1
EC50 [21]: > 150 µM (inactive)
EC50 [22]: 2.08 µM (active)
IC50 (Protein Wnt-3a): 32 µM (inactive)

COc1cc2nc(CN3CC=C(c4ccccc4)CC3)nc(O)c2cc1OC
AC50 [5]: 0.609 µM (active)
IC50 [23]: > 80 µM (inactive)
IC50 [24]: 0.0655 µM (active)
